Each block holds one compound with its values, some of them ahead of it.
Experiments:
[1] = test system: hsa-mir-6850 (RNA, G4) AGCCGGGGCGGGAGGGGAAGGGACGCCCGGCU; assay: fluorescence titration; conditions: 20 mM NaCl, 80 mM KCl, apparent
[2] = test system: hsa-mir-221 (RNA, miRNA) AGCAGAUUUCUGUGUUCGUUAGGCAACAGCUGCU; assay: fluorescence titration; conditions: 20 mM NaCl, 80 mM KCl, phosphate pH 7.0, apparent
[3] = test system: hsa-mir-191 (RNA, miRNA) AGCCAGCUGUUGUCUCCAGAGCAUUCCAGCUGGCU; assay: fluorescence titration; conditions: 20 mM NaCl, 80 mM KCl, phosphate pH 7.0, apparent
[4] = test system: hsa-mir-374a (RNA, miRNA) AGCUAAGUGUUAUAGCACUUAGCU; assay: fluorescence titration; conditions: 20 mM NaCl, 80 mM KCl, phosphate pH 7.0, apparent
[5] = test system: hsa-mir-21 (RNA, miRNA) AGCGUUGACUGUUGAAUCUCAUGGCAACGCU; assay: fluorescence titration; conditions: 20 mM NaCl, 80 mM KCl, phosphate pH 7.0, apparent
[6] = test system: hsa-mir-4520-1-mutG2A (RNA, miRNA) AGCCCAAAUCAAAAAAGGAUUUGGGCU; assay: fluorescence titration; conditions: 20 mM NaCl, 80 mM KCl; 20 mM phosphate pH 7.0, 1% DMSO, 20 °C; apparent
[7] = test system: hsa-mir-4520-1 loop (RNA, miRNA) AGCCCAAAUCAGAAAAGGAUUUGGGCU; assay: fluorescence titration; conditions: 20 mM NaCl, 80 mM KCl; 20 mM phosphate pH 7.0, 1% DMSO, 20 °C; apparent
[8] = test system: hsa-mir-4773-1 (RNA, miRNA) AGCUCUGCUUUAUUUCAUCAAAGCAGAGCU; assay: fluorescence titration; conditions: 20 mM NaCl, 80 mM KCl; 20 mM phosphate pH 7.0, 1% DMSO, 20 °C; apparent
[9] = test system: common stem sequence with four Us in the terminal loop (RNA, hairpin) GUGUACGAAGUUUCAGCUUUUGCUGAAGCUUCGUGCAC; assay: fluorescence titration; conditions: 20 mM NaCl, 80 mM KCl; 20 mM phosphate pH 7.0, 1% DMSO, 20 °C; apparent
[10] = test system: hsa-mir-4520-1 loop (biotinylated) (RNA, miRNA) AGCCCAAAUCAGAAAAGGAUUUGGGCU; assay: SPR, single-cycle kinetics; conditions: 20 mM NaCl, 80 mM KCl; 20 mM phosphate pH 7.0, 25 °C; apparent
[11] = test system: hsa-mir-4520-1-mutG7A (RNA, miRNA) AGCCCAAAUCAGAAAAAGAUUUGGGCU; assay: fluorescence titration; conditions: 20 mM NaCl, 80 mM KCl; 20 mM phosphate pH 7.0, 1% DMSO, 20 °C; apparent
[12] = test system: mutG7A (biotinylated) (RNA, miRNA) AGCCCAAAUCAGAAAAAGAUUUGGGCU; assay: SPR, multi-cycle, 1:1 fit; conditions: 20 mM NaCl, 80 mM KCl; 20 mM phosphate pH 7.0, 1% DMSO, 25 °C; up to 50 μM; apparent
[13] = test system: mutG2A (biotinylated) (RNA, miRNA) AGCCCAAAUCAAAAAAGGAUUUGGGCU; assay: SPR, single-cycle kinetics; conditions: 20 mM NaCl, 80 mM KCl; 20 mM phosphate pH 7.0, 25 °C; apparent
[14] = test system: hsa-mir-4520-1 mutG2,7A (RNA, miRNA) AGCCCAAAUCAAAAAAAGAUUUGGGCU; assay: fluorescence titration; conditions: 20 mM NaCl, 80 mM KCl; 20 mM phosphate pH 7.0, 1% DMSO, 20 °C; apparent
[15] = test system: G4_(GGGU)6 (RNA, G4) AGCGGGUGGGUGGGUGGGUGGGUGGGUGCU; assay: fluorescence titration; conditions: 20 mM NaCl, 80 mM KCl; 20 mM phosphate pH 7.0, 1% DMSO, 20 °C; apparent
[16] = test system: hsa-mir-6847 (RNA, miRNA) AGCGAGCUGGAAGGAGUGGGCCUGGCUCGCU; assay: fluorescence titration; conditions: 20 mM NaCl, 80 mM KCl; 20 mM phosphate pH 7.0, 1% DMSO, 20 °C; apparent
[17] = test system: hsa-mir-4437 (RNA, miRNA) AGCUCCACAAGGAGGGGAUGACCCUUGUGGGGCU; assay: fluorescence titration; conditions: 20 mM NaCl, 80 mM KCl; 20 mM phosphate pH 7.0, 1% DMSO, 20 °C; apparent
[18] = 20 mM phosphate pH 7.0, 1% DMSO, 20 °C, 0.1 μM compound
[19] = 1 μM compound, range 2.6-16 μM for all RNAs

KDapp [1, 18]: 0.19 µM
Compound: CN1C(=CC=Cc2cc[n+](CCC[N+](C)(C)C)c3ccccc23)Sc2ccccc21

KDapp [2, 19]: 3.8 ± 0.3 µM
KDapp [3, 19]: 3.8 ± 0.5 µM
KDapp [4, 19]: 12 ± 1 µM
KDapp [5, 19]: 2.6 ± 0.6 µM
KDapp ([1]; phosphate pH 7.0, 1 μM compound, range 2.6-16 μM for all RNAs): 4.0 ± 0.5 µM
Compound: COc1ccc2c(c[n+](C)c3c4cc5c(cc4ccc23)OCO5)c1OC

KDapp ([3]; 1 μM compound): 14 µM
KDapp ([5]; 1 μM compound): 20 µM
KDapp ([1]; phosphate pH 7.0, 1 μM compound): 4.5 µM
Compound: N#CC(c1ccnc(OCc2ccc(CN3CCOCC3)cc2)n1)c1nc2ccccc2s1 (stereo not shown)

KDapp [6]: 0.011 µM
KDapp [7]: 0.024 µM
KDapp [8]: > 20 µM
KDapp [9]: 9 µM
KDapp [10]: 0.10 ± 0.02 µM
KDapp [11]: 15 µM
KDapp [12]: > 50 µM
KDapp [13]: 0.044 ± 0.008 µM
KDapp [14]: 3.7 µM
KDapp [15]: 0.15 µM
KDapp [16]: 0.022 µM
KDapp ([1]; 20 mM phosphate pH 7.0, 1% DMSO, 20 °C): 0.19 µM
Compound: [N-]=[N+]=NCCOCCOCCOCCNC(=O)Cn1cc2c(nc1=O)Nc1c(OCCN)cccc1O2

KDapp ([2]; range 16-25 μM for target RNAs): 20 ± 2 µM
KDapp ([3]; range 16-25 μM for target RNAs): 25 ± 3 µM
KDapp ([4]; 0-40 μM RNA, low-rank RNA): > 40 µM
KDapp ([5]; range 16-25 μM for target RNAs): 16 ± 0.5 µM
KDapp ([1]; phosphate pH 7.0): 3.3 ± 0.1 µM
Compound: O=c1c(O)c(-c2cc(O)c(O)c(O)c2)oc2cc(O)cc(O)c12

KDapp [1, 18]: 0.20 µM
Compound: C[n+]1c(C=C2C=CN(CCC[N+](C)(C)C)c3ccccc32)sc2ccccc21

KDapp ([2]; 0-40 μM RNA): > 40 µM
KDapp ([3]; 0-40 μM RNA): > 40 µM
KDapp ([5]; 0-40 μM RNA): > 40 µM
Compound: O=c1cc(-c2ccccc2)oc2cc(O)c(O)c(O)c12

KDapp [17]: 4.4 µM
Compound: C[n+]1ccc(C=C2Sc3ccccc3N2CCCCC(=O)NCCOCCOCCOCCN=[N+]=[N-])c2ccccc21

— PMC11865577 (2024)
